The record followed here is publication PMC11770746 (Journal of Medicinal Chemistry, 2025).

The nature of data set [1]: Stability of the Pt(IV) compounds in RPMI medium, monitored by HPLC. The class given is physicochemical. The settings on record: pH = 7, 37 °C, HPLC peak area. As to the method:
The stability of the Pt(IV) compounds was measured in RPMI medium, at pH = 7 and 37 °C, by monitoring the peak area of the prodrugs as a function of time.
Pt(IV) complexes were dissolved in 1% DMSO and RPMI medium at pH 7.4, and kept at 37 °C. Stability half-lives, t1/2, were calculated by linear fitting of ln(At/A0) vs time (t), where At and A0 are the integrated peak areas by HPLC […].

For data set [2], the system named is mice. The experiment in a line: Mechanical allodynia, von Frey assay. Particulars: for mechanical allodynia (in words): compared with the untreated mice. As to the method:
(§1) Von Frey, hot plate, acetone evaporation, and ocular aperture ratio studies were carried out in Balb/c mice according to reported methods.[3] […] Final injection volume was 150 μL. Afterward, tests were carried out 1, 2, and 3 weeks post first injection.
8-week-old Balb/c mice were purchased from Envigo (Israel). Pain thresholds were assessed by observing withdrawal responses to mechanical stimulation of the plantar skin by using von Frey filaments. The mice were placed on a grid and allowed to accustom to the new environment for at least half an hour. The hind paw was touched vertically on the plantar surface with the tip of the filament. Once the fiber bends, the force applied is the maximum, making the repetitions reproducible. Hairs calibrated for forces between 0.008 and 2 g were applied 10 times each in ascending order of force at 5 s intervals to both hind paws. Sharp and quick leg withdrawal or immediate jumping in response to a touch with the hairs was considered as a withdrawal response. Paw movements associated with locomotion were not counted as the withdrawal response. The threshold of withdrawal response was defined when 6 out of 10 applications elicited pain responses. each group contained six animals.

A short description of data set [3]: Reduction by 10 equiv of ascorbic acid, monitored by HPLC. The settings on record: 10 eq. ascorbic acid, pH = 7, 37 °C. Format: physicochemical. As to the method:
To verify that the Pt(IV) prodrugs are activated by reduction, we incubated them with 10 eq. of ascorbic acid at pH = 7 at 37 °C and monitored by HPLC the reduction of the peak of the parent compound as a function of time.
The half-lives (t1/2) of all compounds were obtained after linear fitting of ln(At/A0) vs time (t) by considering a pseudo-first-order rate equation (At = A0e^–kt), where A0 and At are the integrated areas of HPLC peaks of the respective complexes at t = 0 and at time t, respectively, and k (slope) is the rate constant. Then, t1/2 was calculated by utilizing the equation t1/2 = 0.693/k.

In data set [4] the test system is mice. The experiment in a line: Ongoing pain, eye-closing ratio. Format: in vivo. Particulars: i.p. days 1, 3, 5. As to the method: Finally, we assessed whether the treatment with cisPt(OAc)2 or cisPt(Pac)(OH) prevents chemotherapy-induced ongoing pain, by assessing the eye-closing ratio.[53]−[55] The eye-closing ratio test was carried out prior to conducting the induced pain experiments. The eye-closing ratio was obtained by dividing the distance between the edges of the upper and lower eyelids by the length of the canthus (horizontal distance across the eye), where a value of 0 was given to completely closed eyes (indicating pain), and a value of 1 was given to fully open eyes (lack of pain).
as §1
The raw data for the ongoing pain was obtained by taking 3–5 photographs of each of the awake (not immobilized) mice and used such that the position of the eyelids in relation to the eye was clearly visible. The data were analyzed in a blind fashion by using the imaging software, ImageJ, to measure the length between the internal and external canthus (x) and the distance between the edge of the upper and lower eyelids (y). Finally, the ratio of y/x was calculated, and a value between 0 and 1 was obtained for each photo, where 0 is equivalent to the eye completely closed and 1 is equivalent to the eye completely open. The values obtained were an average of the values of the six animals in each group.

The subject of data set [5] is mice. The class given is in vivo. The settings on record: hot plate 54 ± 1 °C; compared with cisplatin, paclitaxel, or their 1:1 co-administration. As to the method:
(§2) The sensitivity to noxious heat was assessed by placing the mice on a hot plate (54 ± 1 °C) and measuring the latency (s), the time until the mice began licking their paws, shaking, or jumping to avoid the heat.
as §1
Unrestrained mouse was placed on a metal surface that was maintained at a constant temperature (54 ± 1 °C) and the response latency, which is the time taken to observe a nocifensive behavior, was recorded. These behaviors include fore paw withdrawal or licking, hind paw withdrawal or licking, stamping, leaning posture, and jumping. each group contained six animals. If no nocifensive behaviors were observed, the animals were removed from the hot plate after 30 s to prevent tissue damage.

The test system of data set [6] is mice. The class given is in vivo. The settings on record: acetone test; compared with cisplatin, paclitaxel, or their 1:1 co-administration. Here is the method: as §2, §1
The test was carried out on a mesh floor, and acetone was dabbed on the plantar surface of the hind paw. Sensitivity to cold was recorded by the duration of nocifensive responses such as brisk withdrawal, flick of the paw, repeated flicking of the paw, repeated flicking of the hind paw, and licking of the paw. each group contained six animals.

In a further data set the test system is all cancer cell lines. Briefly: Antiproliferative MTT assay, summary over the panel. Format: cell-based. Particulars: all cancer cell lines of the panel, 72 h. On the technique in general: Tetrazolium dyes change colour on reduction, which living cells bring about.
Data set [7] relates to murine CT26 colon cancer model. The experiment in a line: In vivo inhibition of tumor growth. The settings on record: CT26 s.c. in BALB/c mice, i.p. every other day up to 4 doses, equimolar: cisplatin 3, paclitaxel 8.5, combination 3 + 8.5, cisPt(Pac)(OH) and its micelles 12 mg/kg.
A further data set has as its system A375 melanoma cells. The experiment in a line: Antiproliferative MTT assay, 72 h. The class given is cell-based, human.
Data set [8] in a line: Platinum accumulation in organs and tumor by ICP-MS (CT26 study). The class given is in vivo, mice. The settings on record: ICP-MS at end of the CT26 experiment. As to the method:
Four-week-old female BALB/cAnNTac mice weighing 16–18 g were purchased from InVivos (Singapore). The animals were housed in Comparative Medicine (CM)-holding units at the National University of Singapore in a pathogen-free environment at constant temperature in a 12/12 h light/dark cycle environment. The mice were acclimatized for 3 days and given access to food and water ad libitum. The mouse colon carcinoma cells CT26 (1 × 10^5 cells in 100 μL of sterile PBS) were subcutaneously injected into the right flank of the mice. The administration of tested compounds was started when tumors became palpable (volume of ∼30 mm^3) on day 13. Subsequently, the animals were separated into 5 groups (n = 6 each) and injected i.p. with different compounds every other day up to 4 doses. Control mice were injected ip with 100 μL of sterile saline. The animals were controlled for pain and/or distress development, and the body weight and tumor size were closely monitored. All animals were alert and responsive during the whole experiment. The mice were euthanized when the diameter of the tumor reached 1.5 cm or upon development of ulceration. The tumor and organs (liver, kidney, and spleen) were collected […].
(§3) Samples were weighed and mineralized with highly pure 70% nitric acid (Pt: ≤0.01 μg kg^–1, TraceSELECT Ultra, Sigma Chemical Co.) for 3 h. Afterward, solutions were completely dried at 110 °C and 1000 μL of 1% HNO3 was added. The platinum content of each sample was measured by ICP-MS. The calibration curve was obtained using known concentrations of standard solutions purchased from Sigma Chemical Co.

The test system of data set [9] is A2780 ovarian carcinoma cells. The experiment in a line: Antiproliferative MTT assay, 72 h. Format: cell-based, human. Particulars: A2780, 72 h treatment.
Experimental: (§4) After 72 h of exposure, the cell biomass was determined by 3-(4,5-dimethylthiazol-2-yl)-2,5-diphenyl tetrazolium bromide (MTT) (Sigma-Aldrich) staining, and the absorptions were calculated as the delta of two measurements of the same well at wavelengths 570 and 690 nm. IC50 values were determined as the concentration that caused 50% inhibition of cell proliferation compared to an untreated control. The results were calculated as the mean values of three independent experiments.
(§5) PC9 human non-small-cell lung carcinoma cells, A375 human malignant melanoma cells, and CT26 WT murine colon carcinoma cells were maintained in DMEM (high glucose, no glutamine/sodium pyruvate) supplemented with L-glutamine solution (4 mM) (2% v/v), 10% (v/v) heat-inactivated fetal bovine serum (South American origin, European grade), and 1% (v/v) penicillin–streptomycin solution (containing penicillin G sodium salt: 10 000 units/mL and streptomycin sulfate: 10 mg/mL) and were passaged twice a week.
The subject of a further data set is kidney. Particulars: mouse, in vivo. The source says:
At the end of the experiments, mice were euthanized, and the tumor, spleen, liver, and kidneys were isolated and analyzed in terms of platinum content by ICP-MS (Figure 4F).
All of the kidney (left kidney) samples were flash-frozen immediately after weighing for cryosections for the histopathological evaluation using H&E staining technique. The tissues were embedded in the OCT compound and 10 μm thick sections were cut and placed onto glass slides using the Leica CM3050 S Cryostat. The slides were dried in a desiccator for approximately 1 h before rinsing in water. Sections are ready for staining immediately after rinse. The slides were stained with H&E (Hematoxylin and eosin) using Leica Autostainer XL. Then, the slides were dehydrated through ascending series of ethanol to xylene before being coverslipped using Leica Coverslipper CV5030. The slides were imaged using the LABOMED Opti CX biological microscope. At least two sections of each kidney sample were stained and 5–10 images were taken for each section under 10× and 40× magnifications. The images were analyzed for histopathological changes by two pathologists in a blinded manner.

Data set [10] concerns PC9 non-small-cell lung cancer cells. The experiment in a line: Antiproliferative MTT assay, 72 h. Particulars: PC9, 72 h treatment. Format: cell-based, human.
Experimental: as §4, §5
Data set [11] relates to A2780cisR cisplatin-resistant ovarian carcinoma cells. The experiment in a line: Antiproliferative MTT assay, 72 h. The class given is cell-based, human. Particulars: 72 h treatment.
Experimental: as §4, §5
Data set [12] deals with CT26 murine colon cancer cells. The experiment in a line: Antiproliferative MTT assay, 72 h. Format: cell-based. The settings on record: CT26, 72 h treatment.
Experimental: as §4, §5
Data set [13] is described as follows: Platinum accumulation in the DRG by ICP-MS. The class given is in vivo, mice. Particulars: day 7 after injections on days 1, 3, 5. As to the method:
To explore whether the differences in the behavioral tests between cisplatin, cisplatin + paclitaxel, and cisPt(Pac)(OH) correlate with platinum accumulation in the DRG, we quantified the platinum in the DRG.
Afterward, on days 7–10, animals from each group were anesthetized using isoflurane and decapitated. Thereafter, DRG were removed and placed in DDW at room temperature.
as §3

Data set [14] in a line: Body weight changes in the CT26 efficacy study (general toxicity). Format: in vivo, mice. Particulars: i.p., equimolar doses.
Experimental: Four-week-old female BALB/cAnNTac mice weighing 16–18 g were purchased from InVivos (Singapore). The animals were housed in Comparative Medicine (CM)-holding units at the National University of Singapore in a pathogen-free environment at constant temperature in a 12/12 h light/dark cycle environment. The mice were acclimatized for 3 days and given access to food and water ad libitum. The mouse colon carcinoma cells CT26 (1 × 10^5 cells in 100 μL of sterile PBS) were subcutaneously injected into the right flank of the mice. The administration of tested compounds was started when tumors became palpable (volume of ∼30 mm^3) on day 13. Subsequently, the animals were separated into 5 groups (n = 6 each) and injected i.p. with different compounds every other day up to 4 doses. Control mice were injected ip with 100 μL of sterile saline. The animals were controlled for pain and/or distress development, and the body weight and tumor size were closely monitored. […] The mice were euthanized when the diameter of the tumor reached 1.5 cm or upon development of ulceration.

What is called IC50 is the point on the concentration scale where inhibition reaches its midpoint. Lower therefore signals higher potency.

Experimental for A375 melanoma cells: as §4, §5
Experimental for all cancer cell lines: as §4

As for `CC(=O)[O][Pt]1([O]C(C)=O)[O]C(=O)C(=O)[O]1.NC1CCCCC1N` [Oxali(OAc)2], in data set [1], the “t1/2 RPMI 1640” value is 742 h. The “neuropathic pain by withdrawal thresholds to mechanical stimuli” value in the data set with mice [2] (male and female mice, 5.19 mg/kg i.p. days 1, 3, 5) was “did not induce neuropathic pain”. The “t1/2 10 equiv Asc” value in data set [3] is 63 h.
Turning to `CC(=O)[O][Pt]([Cl])([Cl])[O]C(C)=O.N.N` [cisPt(OAc)2], the “t1/2 RPMI 1640” value in data set [1] was 120 h. In addition, in the data set on mice [4], the “ongoing (spontaneous) pain” value was “did not induce any ongoing pain”. Besides, the thermal hyperalgesia entry in the data set on mice [5] was “significantly reduced”. In the data set with mice [6], the cold allodynia entry is given as “significantly reduced cold allodynia”. For the same compound, in data set [3], the “t1/2 10 equiv Asc” value amounted to 7.8 h.
On to `N.N.[Cl][Pt][Cl]` [cisplatin], for which the “IC50 values (in words)” value with all cancer cell lines was “low μM”. Also, the “Inhibition of Tumor Growth (TGI)” value in data set [7] came out at 41%. Moreover, the IC50 with A375 melanoma cells (A375, 72 h treatment) was 1910 ± 620 nM; in data set [9], 1180 ± 130 nM; in data set [10], 5290 ± 1750 nM; in [11], 16200 ± 3140 nM; in data set [12], 5890 ± 1190 nM. The “mechanical allodynia (in words)” value with mice [2] (von Frey) is “persistent reduction in the withdrawal threshold”. Moreover, the “reduction of withdrawal threshold” value in the data set on mice [2] (von Frey, compared with untreated mice) is on record as “about 95%”. Also, the “levels of Pt in the kidneys” value in [8] was “high levels of Pt”. Further, the “platinum levels in the tumor” value in data set [8] is “rather similar”. For the same compound, the “ongoing (spontaneous) pain” value in the data set with mice [4] was “substantial spontaneous pain”. For the same compound, in the data set with kidney, the “histopathological changes of the kidney tubules” value is listed as “focal tubular necrosis”.
Turning to `CC(=O)O[C@H]1C(=O)[C@@]2(C)[C@H]([C@H](OC(=O)c3ccccc3)[C@]3(O)C[C@H](OC(=O)[C@H](O)[C@@H](NC(=O)c4ccccc4)c4ccccc4)C(C)=C1C3(C)C)[C@]1(OC(C)=O)CO[C@@H]1C[C@@H]2O` [paclitaxel], the “IC50 values (in words)” value in the data set with all cancer cell lines is “low nM”. In addition, in [7], the “Inhibition of Tumor Growth (TGI)” value is 27%. For the same compound, the IC50 in the data set with A375 melanoma cells (Homo sapiens, A-375, A375, 72 h treatment) was found to be 14 ± 4 nM; in data set [9] (Homo sapiens) it was 2.2 ± 1 nM; in data set [10] (Homo sapiens), 4.5 ± 2 nM; in [11] (Homo sapiens), 3 ± 1 nM; in [12] (Mus musculus) it was 384 ± 109 nM. For the same compound, in the data set on mice [2] (von Frey), the “mechanical allodynia (in words)” value is on record as “persistent reduction in the withdrawal threshold”. Also, in the data set on mice [4], the “ongoing (spontaneous) pain” value is reported as “substantial spontaneous pain”.
For “ctc-[Pt(NH3)2(Pac)(OH)Cl2] [cisPt(Pac)(OH)]”, in [13], the “platinum levels in the DRG” value was “lower than after treatment with cisplatin or the co-treatment with cisplatin and paclitaxel”. Further, the “IC50 values (in words)” value with all cancer cell lines is reported as “low nM”. Moreover, in [1], the “t1/2 RPMI 1640” value worked out at 35 h. In addition, in [7], the “Inhibition of Tumor Growth (TGI)” value came out at 65%. Besides, the 50% inhibitory concentration (IC50) in the data set with A375 melanoma cells (A375, 72 h treatment) stood at 18 ± 3 nM; in data set [9], 4.5 ± 2 nM; in [10] it was 6 ± 1 nM; in data set [11], 5.9 ± 0.1 nM; in data set [12], 406 ± 106 nM. Besides, in [8], the “levels of Pt in the kidneys” value is “much lower levels”. Besides, the “platinum levels in the tumor” value in data set [8] is listed as “rather similar”. Also, the “ongoing (spontaneous) pain” value in the data set on mice [4] is recorded as “did not induce any ongoing pain”. Besides, the “kidney toxicity (creatinine and histopathology)” value in the data set on kidney was “lower kidney toxicity”. Also, in the data set with mice [5], the thermal hyperalgesia entry is reported as “significantly reduced”. Further, in the data set with mice [6], the cold allodynia result was “significantly reduced cold allodynia”. For the same compound, in data set [14], the “body weight loss compared to the control” value is “did not exhibit any substantial weight loss”. The “t1/2 10 equiv Asc” value in data set [3] is given as 0.16 h.
